Laboratory results taken from paper PMC9496346, “Controversial Role of Transferrin in the Transport of Ruthenium Anticancer Drugs” (Biomolecules, 2022).

Legend:
[1] = test system: T1, recombinant human transferrin receptor 1 (TfR1); assay: BLI of Tf–TfR1 binding in dilute cell culture media after uptake experiments; settings: apoTf 30 μM + KP1019 60 μM in DMEM with ~15 μM BSA, vs same medium with apoTf only
T1 construct: extracellular domain (Cyst89-Phe760), (His)6-tagged at the N-terminus; purchased Sino Biological, Beijing, China (TfR1)
Protocol: The effects of Ru complexes on the Tf cycle were determined by BLI using previously developed protocols. The instrument used was a single-channel BLItz analyser (ForteBio, Menlo Park, CA, USA) with a tube holder (250 µL solution volume) and Ni(II)–nta coated optical probes held at 295 ± 1 K. Measurements used the Advanced Kinetics mode. […] Solutions of metal–Tf adducts (typical final Tf concentrations 150 nM or 1.0 µM) were prepared in the binding buffer (Section 2.1). The pH 7.4 binding buffer was used for Tf binding and dissociation from the probe, and the pH 5.6 buffer (Section 2.1) was used to mimic the endosomal step of the Tf cycle. Metal–Tf solutions (A1–A9 in Table 1) were diluted 100–400-fold, cell culture media were diluted 30-fold, and human serum samples were diluted 200-fold with the binding buffer immediately before the BLI measurements. All BLI data were background corrected by using data from buffer only runs with the same TfR1-loaded optical probe. Consistent BLI results were obtained in at least two independent measurements, using different probes and different batches of Tf solutions. Calculations of the Tf–TfR1 binding constants were performed using the 1:1 binding model (BLItz software, Version 1.1, Forte-Bio 2013), which can be used as a reasonable approximation of the physiological 2:2 Tf–TfR1 binding mechanism at low Tf concentrations.
(a) BLI response curves for 1.0 µM of human Tf at 295 K in dilute cell culture media after Ru uptake experiments by HepG2 cells (Section 3.2 in the main text). Media (serum-free DMEM, containing 1.0 mg mL−1 BSA as a background protein, as well as KP1019 and/or Tf, as shown in the figure legend), were collected after the end of uptake experiments, then were diluted 30-fold with buffer (20 mM HEPES + 25 mM NaHCO3 + 140 mM NaCl, pH = 7.4) and applied to TfR1-loaded BLI probe. Designations of the steps in Tf cycle (A–D) correspond to those in Figure 1d-f, main text. Calculated KD values (1:1 binding model, BLItz software) were as […]

[2] = Decomposition of KP1019 in cell culture medium; type: in vitro ADME; settings: 310 K; reported previously and confirmed in this work
[3] = cited from earlier work

[Cl-].[Cl-].[Cl-].[Cl-].[Ru+3].c1ccc2[nH][nH+]cc2c1.c1ccc2[nH]ncc2c1.c1ccc2[nH]ncc2c1 [KP1019, (IndH)[Ru^IIICl4(Ind)2]]
Effect on Tf–TfR1 binding in cell culture medium [1]: did not have a major effect | Decomposition in cell culture medium (time) [2]: within several hours | Tf binding of KP1019 decomposition products in blood serum, share of total Ru ([3]; human pharmacokinetic studies): 1–2% | Typical peak Ru concentrations in the blood of patients ([3]; patients treated with KP1019 in clinical trials): 0.1 to 0.4 mM
